The source of these data is publication PMC5218480 (PLoS ONE, 2017).

The test deals with MV-4-11 cells. Description: Gene expression microarray analysis (Affymetrix PrimeView) and GSEA. To be noted: ProbeSet 11725902_s_at; LIST D. Type of test: cell-based, human. Also noted: RFU PODN (11730768_x_at) / Fold change /veh PODN (11730768_x_at) / RFU LINC00158 (11744669_a_at) / Fold change /veh LINC00158 (11744669_a_at) / RFU DUSP10 (11751237_a_at) / Fold change /veh DUSP10 (11751237_a_at) / RFU ID3 (11757404_x_at) / Fold change /veh ID3 (11757404_x_at) / RFU PLEKHG5 (11737974_s_at) / Fold change /veh PLEKHG5 (11737974_s_at) / RFU LRRC4B (11730491_at) / Fold change /veh LRRC4B (11730491_at) / RFU GIMAP4 (11747438_a_at) / Fold change /veh GIMAP4 (11747438_a_at) / RFU KRT8 (11758183_x_at) / Fold change /veh KRT8 (11758183_x_at) / RFU CNN1 (11734310_a_at) / Fold change /veh CNN1 (11734310_a_at) / RFU VPS37D (11726825_at) / Fold change /veh VPS37D (11726825_at) / RFU C10orf10 (11716522_x_at) / Fold change /veh C10orf10 (11716522_x_at) / RFU KIR2DL2 /// KIR2DL4 /// KIR2DL5A /// KIR2DL5B /// KIR2DS1 /// KIR2DS2 /// KIR2DS3 /// KIR2DS4 /// KIR3DL3 /// KIR3DL3 /// KIR3DS1 (11738374_at) / Fold change /veh KIR2DL2 /// KIR2DL4 /// KIR2DL5A /// KIR2DL5B /// KIR2DS1 /// KIR2DS2 /// KIR2DS3 /// KIR2DS4 /// KIR3DL3 /// KIR3DL3 /// KIR3DS1 (11738374_at) / RFU C1QL1 (11718748_at) / Fold change /veh C1QL1 (11718748_at) / RFU TMPRSS4 (11747572_a_at) / Fold change /veh TMPRSS4 (11747572_a_at) / RFU HAMP (11756126_x_at) / Fold change /veh HAMP (11756126_x_at) / RFU RNFT2 (11725882_a_at) / Fold change /veh RNFT2 (11725882_a_at) / RFU NR4A2 (11747474_a_at) / Fold change /veh NR4A2 (11747474_a_at) / RFU ABCC12 (11746883_a_at) / Fold change /veh ABCC12 (11746883_a_at) / RFU TMEM136 (11760407_x_at) / Fold change /veh TMEM136 (11760407_x_at) / RFU CLDN22 /// WWC2 (11732394_at) / Fold change /veh CLDN22 /// WWC2 (11732394_at) / RFU HLA-DPB1 (11760878_x_at) / Fold change /veh HLA-DPB1 (11760878_x_at) / RFU SPINT1 (11716480_a_at) / Fold change /veh SPINT1 (11716480_a_at) / RFU GAP43 (11754022_s_at) / Fold change /veh GAP43 (11754022_s_at) / RFU A4GNT (11735810_at) / Fold change /veh A4GNT (11735810_at) / RFU PRB3 (11715151_x_at) / Fold change /veh PRB3 (11715151_x_at) / RFU TUBB4B (11761932_at) / Fold change /veh TUBB4B (11761932_at) / RFU CAPN14 (11732068_a_at) / Fold change /veh CAPN14 (11732068_a_at) / RFU TMCC2 (11721928_a_at) / Fold change /veh TMCC2 (11721928_a_at) / RFU IRGQ (11745062_a_at) / Fold change /veh IRGQ (11745062_a_at) / RFU FAM174B (11720279_a_at) / Fold change /veh FAM174B (11720279_a_at) / RFU TMPRSS4 (11748680_a_at) / Fold change /veh TMPRSS4 (11748680_a_at) / RFU FAM212B (11763350_a_at) / Fold change /veh FAM212B (11763350_a_at) / RFU PLEKHG5 (11743358_a_at) / Fold change /veh PLEKHG5 (11743358_a_at) / RFU ZSCAN30 (11745921_a_at) / Fold change /veh ZSCAN30 (11745921_a_at) / RFU CMKLR1 (11741424_a_at) / Fold change /veh CMKLR1 (11741424_a_at) / RFU LOC101060620 /// MAPK8IP1 (11723275_at) / Fold change /veh LOC101060620 /// MAPK8IP1 (11723275_at) / RFU SPTSSB (11747773_x_at) / Fold change /veh SPTSSB (11747773_x_at) / RFU PRSS12 (11739890_at) / Fold change /veh PRSS12 (11739890_at) / RFU BIN1 (11741810_x_at) / Fold change /veh BIN1 (11741810_x_at) / RFU WNT11 (11732464_a_at) / Fold change /veh WNT11 (11732464_a_at) / RFU C10orf10 (11716521_a_at) / Fold change /veh C10orf10 (11716521_a_at) / RFU C5orf56 (11738089_at) / Fold change /veh C5orf56 (11738089_at) / RFU CYB561 (11721691_x_at) / Fold change /veh CYB561 (11721691_x_at) / RFU ANKRD19P (11752326_a_at) / Fold change /veh ANKRD19P (11752326_a_at) / RFU OR2T12 /// OR2T33 /// OR2T8 (11738714_s_at) / Fold change /veh OR2T12 /// OR2T33 /// OR2T8 (11738714_s_at) / RFU VCAN (11748164_a_at) / Fold change /veh VCAN (11748164_a_at) / RFU JSRP1 (11732532_at) / Fold change /veh JSRP1 (11732532_at) / RFU KRTAP10-11 (11738290_x_at) / Fold change /veh KRTAP10-11 (11738290_x_at) / RFU MYO3A (11730013_a_at) / Fold change /veh MYO3A (11730013_a_at) / RFU EBF3 (11725865_a_at) / Fold change /veh EBF3 (11725865_a_at) / RFU CAMK2N1 (11719241_x_at) / Fold change /veh CAMK2N1 (11719241_x_at) / RFU C5orf56 (11738088_a_at) / Fold change /veh C5orf56 (11738088_a_at) / RFU OLFML3 (11715873_a_at) / Fold change /veh OLFML3 (11715873_a_at) / RFU LOC100653217 /// NTM (11731650_a_at) / Fold change /veh LOC100653217 /// NTM (11731650_a_at) / RFU MAPK11 (11762145_a_at) / Fold change /veh MAPK11 (11762145_a_at) / RFU FIZ1 (11724087_x_at) / Fold change /veh FIZ1 (11724087_x_at) / RFU OASL (11726364_x_at) / Fold change /veh OASL (11726364_x_at) / RFU SOX15 (11748057_x_at) / Fold change /veh SOX15 (11748057_x_at) / RFU CD79A (11719716_a_at) / Fold change /veh CD79A (11719716_a_at) / RFU HIST1H1D (11736915_at) / Fold change /veh HIST1H1D (11736915_at) / RFU CASKIN2 (11723855_a_at) / Fold change /veh CASKIN2 (11723855_a_at) / RFU LOC730098 (11760151_x_at) / Fold change /veh LOC730098 (11760151_x_at) / RFU OR4N2 (11742367_at) / Fold change /veh OR4N2 (11742367_at) / RFU PRRT2 (11749266_a_at) / Fold change /veh PRRT2 (11749266_a_at) / RFU SNX32 (11753110_a_at) / Fold change /veh SNX32 (11753110_a_at) / RFU CDHR5 (11726645_a_at) / Fold change /veh CDHR5 (11726645_a_at) / RFU RCAN1 (11760418_a_at) / Fold change /veh RCAN1 (11760418_a_at) / RFU FAM167A (11723789_a_at) / Fold change /veh FAM167A (11723789_a_at) / RFU FAM26E (11764081_at) / Fold change /veh FAM26E (11764081_at) / RFU ISYNA1 (11749810_s_at) / Fold change /veh ISYNA1 (11749810_s_at) / RFU ACY1 (11761880_at) / Fold change /veh ACY1 (11761880_at) / RFU 11764098_at / Fold change /veh 11764098_at / RFU SAMD14 (11745864_x_at) / Fold change /veh SAMD14 (11745864_x_at) / RFU NPB (11741838_a_at) / Fold change /veh NPB (11741838_a_at) / RFU TMPRSS6 (11731388_a_at) / Fold change /veh TMPRSS6 (11731388_a_at) / RFU KRTAP10-2 (11738614_at) / Fold change /veh KRTAP10-2 (11738614_at) / RFU ARHGAP8 /// PRR5-ARHGAP8 (11727945_x_at) / Fold change /veh ARHGAP8 /// PRR5-ARHGAP8 (11727945_x_at) / RFU KRTAP5-7 /// NADSYN1 (11734609_at) / Fold change /veh KRTAP5-7 /// NADSYN1 (11734609_at) / RFU RASL12 (11751679_a_at) / Fold change /veh RASL12 (11751679_a_at) / RFU CDKN2B (11736163_a_at) / Fold change /veh CDKN2B (11736163_a_at) / RFU PRF1 (11729649_at) / Fold change /veh PRF1 (11729649_at) / RFU, ZNF638 /// ZNF638-IT1 / Fold change vs veh, ZNF638 /// ZNF638-IT1 / RFU, PANK3 / Fold change vs veh, PANK3 / RFU, SH3YL1 / Fold change vs veh, SH3YL1 / RFU, ZEB2 / Fold change vs veh, ZEB2 / RFU, NRIP1 / Fold change vs veh, NRIP1 / RFU, PTTG1IP / Fold change vs veh, PTTG1IP / RFU, CAPN2 / Fold change vs veh, CAPN2 / RFU, MED14 / Fold change vs veh, MED14 / RFU, SNORA58 / Fold change vs veh, SNORA58 / RFU, C1orf63 / Fold change vs veh, C1orf63 / RFU, LRRFIP1 / Fold change vs veh, LRRFIP1 / RFU, NDUFAF7 / Fold change vs veh, NDUFAF7 / RFU, SLC12A2 / Fold change vs veh, SLC12A2 / RFU, IBTK / Fold change vs veh, IBTK / RFU, ESF1 / Fold change vs veh, ESF1 / Fold change vs veh, TMEM50B / RFU, TAOK1 / Fold change vs veh, TAOK1 / RFU, ACBD3 / Fold change vs veh, ACBD3 / RFU, TMA16 / Fold change vs veh, TMA16 / RFU, RWDD3 / Fold change vs veh, RWDD3 / RFU, BCAT1 / Fold change vs veh, BCAT1 / RFU, EDEM3 / Fold change vs veh, EDEM3 / RFU, TMEM33 / Fold change vs veh, TMEM33 / RFU, WDR75 / Fold change vs veh, WDR75 / RFU, AHCTF1 / Fold change vs veh, AHCTF1 / RFU, TFRC / Fold change vs veh, TFRC / RFU, ZDHHC17 / Fold change vs veh, ZDHHC17 / RFU, NOM1 / Fold change vs veh, NOM1 / RFU, ARL8B / Fold change vs veh, ARL8B / RFU, ZBTB11 / Fold change vs veh, ZBTB11 / RFU, TAMM41 / Fold change vs veh, TAMM41 / RFU, KIAA1704 /// LOC100996395 / Fold change vs veh, KIAA1704 /// LOC100996395 / RFU, ING1 / Fold change vs veh, ING1 / RFU, TRMT61B / Fold change vs veh, TRMT61B / RFU, FUBP3 / Fold change vs veh, FUBP3 / RFU, TP53 / Fold change vs veh, TP53 / RFU, TNKS2 / Fold change vs veh, TNKS2 / RFU, ZFP14 / Fold change vs veh, ZFP14 / RFU, ACTR2 / Fold change vs veh, ACTR2 / RFU, PPP3R1 / Fold change vs veh, PPP3R1 / RFU, PIK3R1 / Fold change vs veh, PIK3R1 / RFU, HNRNPA1 / Fold change vs veh, HNRNPA1 / RFU, RNF170 / Fold change vs veh, RNF170 / RFU, ZNF28 / Fold change vs veh, ZNF28 / RFU, RNGTT / Fold change vs veh, RNGTT / RFU, OGT / Fold change vs veh, OGT / RFU, BRD1 / Fold change vs veh, BRD1 / RFU, MARS / Fold change vs veh, MARS / RFU, ZNF655 / Fold change vs veh, ZNF655 / RFU, FAHD1 / Fold change vs veh, FAHD1 / RFU, BDP1 / Fold change vs veh, BDP1 / RFU, LRRCC1 / Fold change vs veh, LRRCC1 / RFU, ARID1A / Fold change vs veh, ARID1A / RFU, ZNF146 / Fold change vs veh, ZNF146 / RFU, ZNF330 / Fold change vs veh, ZNF330 / RFU, GPN3 / Fold change vs veh, GPN3 / RFU, C9orf123 / Fold change vs veh, C9orf123 / RFU, N4BP2L2 / Fold change vs veh, N4BP2L2 / RFU, ARFIP1 / Fold change vs veh, ARFIP1 / RFU, FAM179B / Fold change vs veh, FAM179B / RFU, BCL10 / Fold change vs veh, BCL10 / RFU, UHRF1BP1L / Fold change vs veh, UHRF1BP1L / RFU, BET1 / Fold change vs veh, BET1 / RFU, CNOT2 / Fold change vs veh, CNOT2 / RFU, ZNF268 / Fold change vs veh, ZNF268 / Fold change vs veh, ZNF507 / RFU, DGCR2 / Fold change vs veh, DGCR2 / RFU, WDSUB1 / Fold change vs veh, WDSUB1 / Fold change vs veh, HSP90B1 /// MIR3652 / RFU, ADSS / Fold change vs veh, ADSS / RFU, GK / Fold change vs veh, GK / RFU, ZNF148 / Fold change vs veh, ZNF148 / RFU, TAF9 / Fold change vs veh, TAF9 / RFU, SLC1A5 / Fold change vs veh, SLC1A5 / RFU, SLMO2 / Fold change vs veh, SLMO2 / RFU, ABCC4 / Fold change vs veh, ABCC4 / RFU, LOC101060439 /// RAP1B / Fold change vs veh, LOC101060439 /// RAP1B / RFU, RFX7 / Fold change vs veh, RFX7 / RFU, GTPBP10 / Fold change vs veh, GTPBP10 / RFU, CNEP1R1 / Fold change vs veh, CNEP1R1 / RFU, BIVM-ERCC5 /// ERCC5 / Fold change vs veh, BIVM-ERCC5 /// ERCC5 / RFU, ILF3 / Fold change vs veh, ILF3 / RFU 11762660_at / Fold change /veh 11762660_at / RFU VCAN (11757783_s_at) / Fold change /veh VCAN (11757783_s_at) / RFU DDX43 (11728927_at) / Fold change /veh DDX43 (11728927_at) / RFU KRT8 (11758188_x_at) / Fold change /veh KRT8 (11758188_x_at) / RFU NKD1 (11759106_at) / Fold change /veh NKD1 (11759106_at) / RFU SRD5A1 (11742802_a_at) / Fold change /veh SRD5A1 (11742802_a_at) / RFU TPSAB1 /// TPSB2 (11721975_s_at) / Fold change /veh TPSAB1 /// TPSB2 (11721975_s_at) / RFU GSTM3 (11746129_a_at) / Fold change /veh GSTM3 (11746129_a_at) / RFU IL23R (11737362_x_at) / Fold change /veh IL23R (11737362_x_at) / RFU TMEM51 (11727254_a_at) / Fold change /veh TMEM51 (11727254_a_at) / RFU PIWIL2 (11732686_x_at) / Fold change /veh PIWIL2 (11732686_x_at) / RFU ORM1 (11744905_x_at) / Fold change /veh ORM1 (11744905_x_at) / RFU CCDC152 (11743942_at) / Fold change /veh CCDC152 (11743942_at) / RFU ECM1 (11717891_a_at) / Fold change /veh ECM1 (11717891_a_at) / RFU IL23R (11748794_a_at) / Fold change /veh IL23R (11748794_a_at) / RFU TNFAIP8L3 (11732012_x_at) / Fold change /veh TNFAIP8L3 (11732012_x_at) / RFU MBOAT4 (11741988_at) / Fold change /veh MBOAT4 (11741988_at) / RFU 11764193_at / Fold change /veh 11764193_at / RFU TMEM53 (11763286_at) / Fold change /veh TMEM53 (11763286_at) / RFU MAGEB2 (11727129_at) / Fold change /veh MAGEB2 (11727129_at) / RFU TMEM200A (11744735_a_at) / Fold change /veh TMEM200A (11744735_a_at) / RFU CCDC152 (11751479_a_at) / Fold change /veh CCDC152 (11751479_a_at) / RFU FAM211A (11726209_a_at) / Fold change /veh FAM211A (11726209_a_at) / RFU RGS16 (11746705_a_at) / Fold change /veh RGS16 (11746705_a_at) / RFU VCAN (11755009_s_at) / Fold change /veh VCAN (11755009_s_at) / RFU RHOB (11743442_s_at) / Fold change /veh RHOB (11743442_s_at) / RFU RGS16 (11720943_a_at) / Fold change /veh RGS16 (11720943_a_at) / RFU RGS16 (11720944_at) / Fold change /veh RGS16 (11720944_at) / RFU, VPS4B / Fold change vs veh, VPS4B / RFU, CREB1 / Fold change vs veh, CREB1 / RFU, DNAJC13 / Fold change vs veh, DNAJC13 / RFU, GNAQ / Fold change vs veh, GNAQ / RFU, CDK5R1 / Fold change vs veh, CDK5R1 / RFU, ZRANB3 / Fold change vs veh, ZRANB3 / RFU, CUL4A / Fold change vs veh, CUL4A / RFU, CCNY / Fold change vs veh, CCNY / RFU, UFL1 / Fold change vs veh, UFL1 / RFU, COG3 / Fold change vs veh, COG3 / RFU, DIAPH2 / Fold change vs veh, DIAPH2 / RFU, SKA2 / Fold change vs veh, SKA2 / RFU, AFF3 / Fold change vs veh, AFF3 / RFU, LMF1 / Fold change vs veh, LMF1 / RFU, IPO11 / Fold change vs veh, IPO11 / RFU, DFFB / Fold change vs veh, DFFB / RFU, FOXP1 / Fold change vs veh, FOXP1 / RFU, CARD8 / Fold change vs veh, CARD8 / RFU, STRN3 / Fold change vs veh, STRN3 / RFU, ADK / Fold change vs veh, ADK / RFU, RASSF2 / Fold change vs veh, RASSF2 / RFU, WIPF1 / Fold change vs veh, WIPF1 / RFU, LARP1B / Fold change vs veh, LARP1B / RFU, RASA1 / Fold change vs veh, RASA1 / RFU, RB1 / Fold change vs veh, RB1 / RFU, PPFIA1 / Fold change vs veh, PPFIA1 / RFU, MAT2A / Fold change vs veh, MAT2A / RFU, CCT5 / Fold change vs veh, CCT5 / RFU, WDR92 / Fold change vs veh, WDR92 / RFU, CUX1 / Fold change vs veh, CUX1 / RFU, TTC7A / Fold change vs veh, TTC7A / RFU, TMEM135 / Fold change vs veh, TMEM135 / RFU, DEPTOR / Fold change vs veh, DEPTOR / RFU, CPM / Fold change vs veh, CPM / RFU, DNAJB6 / Fold change vs veh, DNAJB6 / RFU, CACNA2D3 / Fold change vs veh, CACNA2D3 / RFU, DTX4 / Fold change vs veh, DTX4 / RFU, TFCP2 / Fold change vs veh, TFCP2 / RFU, GMCL1 /// GMCL1P1 / Fold change vs veh, GMCL1 /// GMCL1P1 / RFU, AEBP2 / Fold change vs veh, AEBP2 / RFU, SNHG1 /// SNORD22 /// SNORD25 /// SNORD26 /// SNORD27 /// SNORD28 /// SNORD29 /// SNORD31 / Fold change vs veh, SNHG1 /// SNORD22 /// SNORD25 /// SNORD26 /// SNORD27 /// SNORD28 /// SNORD29 /// SNORD31 / Fold change (Aza/veh), C12orf56 (ProbeSet 11735607_a_at) / Fold change (ACY-1035/veh), C12orf56 (ProbeSet 11735607_a_at) / Fold change (Aza/veh), FGFR1OP (ProbeSet 11751329_s_at) / Fold change (ACY-1035/veh), FGFR1OP (ProbeSet 11751329_s_at) / Fold change (Aza/veh), VPS36 (ProbeSet 11739960_a_at) / Fold change (ACY-1035/veh), VPS36 (ProbeSet 11739960_a_at) / RFU SYPL1 (11715823_x_at) / Fold change /veh SYPL1 (11715823_x_at) / RFU IGFBP7 (11715501_s_at) / Fold change /veh IGFBP7 (11715501_s_at) / RFU REEP3 (11722064_at) / Fold change /veh REEP3 (11722064_at) / RFU IGLL1 (11728026_x_at) / Fold change /veh IGLL1 (11728026_x_at): dose or concentration left out as unconfirmed.

Each structure is given as a SMILES string.

As for `Nc1ccc(-c2cccs2)cc1NC(=O)c1ccc2c(c1)cc(C1CC1)n2CCN1CCOCC1` [ACY-1035], the “Fold change vs veh, TMEM135” value worked out at 0.99.
